In brackets after ≈: the same amount, converted by molar mass.

Data set [1] concerns Staphylococcus aureus. Description: Antibacterial activity against Staphylococcus aureus ATCC 25923 after 24 hrs by micro broth dilution method. It is filed as functional. The conditions noted are these: ATCC 25923, 24 h. In general terms: In broth dilution the organism is exposed to a series of concentrations in liquid medium.
In data set [2] the test system is Pseudomonas aeruginosa. Description: Antibacterial activity against Pseudomonas aeruginosa ATCC 27853 after 24 hrs by micro broth dilution method. The conditions noted are these: ATCC 27853, 24 h. It is filed as functional.
Data set [3] deals with Shigella dysenteriae. Description: Antibacterial activity against Shigella dysenteriae ATCC 51252 after 24 hrs by micro broth dilution method. It is filed as functional. The conditions noted are these: ATCC 51252, 24 h.
In data set [4] the test system is Micrococcus luteus. Description: Antibacterial activity against Micrococcus luteus ATCC 4698 after 24 hrs by micro broth dilution method. It is filed as functional. Conditions: ATCC 4698, 24 h.
The test system of data set [5] is Bacillus spizizenii. Description: Antibacterial activity against Bacillus subtilis ATCC 6633 after 24 hrs by micro broth dilution method. It is filed as functional. The conditions noted are these: ATCC 6633, 24 h.
Data set [6] relates to Escherichia coli. Description: Antibacterial activity against Escherichia coli DH52 after 24 hrs by micro broth dilution method. It is filed as functional. Conditions: DH52, 24 h.
Data set [7] relates to Staphylococcus aureus. Description: Antibacterial activity against methicillin-resistant Staphylococcus aureus N315 after 24 hrs by micro broth dilution method. Conditions: N315, 24 h. It is filed as functional.
For data set [8], the system named is Bacillus sp. Description: Antibacterial activity against Bacillus proteus ATCC 13315 after 24 hrs by micro broth dilution method. Conditions: Bacillus sp. (in: firmicutes), ATCC 13315, 24 h. It is filed as functional.
The subject of data set [9] is Cyberlindnera jadinii. Description: Antifungal activity against Candida utilis ATCC 9950 after 24 hrs by micro broth dilution method. It is filed as functional. Conditions: Williopsis jadinii, ATCC 9950, 24 h.
In data set [10] the test system is Candida albicans. Description: Antifungal activity against Candida albicans ATCC 90029 after 24 hrs by micro broth dilution method. The conditions noted are these: ATCC 90029, 24 h. It is filed as functional.
Data set [11] concerns Aspergillus flavus. Description: Antifungal activity against Aspergillus flavus after 24 hrs by micro broth dilution method. It is filed as functional.
Data set [12] in a line: Ionization constant, pKa of the compound by UV spectroscopy. It is filed as physicochemical.
Data set [13] has as its system Candida. Description: Antifungal activity against Candida mycoderma after 24 hrs by micro broth dilution method. It is filed as functional.

In the case of `CCn1cc(C(=O)O)c(=O)c2cc(F)c(N3CCNCC3)cc21` [NORFLOXACIN], the MIC (in general, the lowest concentration that inhibits growth of the organism) in data set [1] amounted to 2 mg/L (≈ 6.26 µM); in data set [2] it was 0.5 mg/L (≈ 1.57 µM); in data set [3], 0.5 mg/L (≈ 1.57 µM); in data set [4], 0.5 mg/L (≈ 1.57 µM); in data set [5], 1 mg/L (≈ 3.13 µM); in [6], 0.5 mg/L (≈ 1.57 µM). Also, the values for the MIC in [7] and in [8] were 0.5 mg/L (≈ 1.57 µM) and 1 mg/L (≈ 3.13 µM), respectively.

For `CCCCCCCCCCN(Cc1nnn[nH]1)c1ccccc1`, the MIC is 64 mg/L (≈ 203 µM) in data set [1]; 16 mg/L (≈ 50.7 µM) in [9]; 128 mg/L (≈ 406 µM) in data set [2]; 64 mg/L (≈ 203 µM) in [3]; 32 mg/L (≈ 101 µM) in [10]; 32 mg/L (≈ 101 µM) in data set [11]. Also, the MIC in data set [13] stood at 32 mg/L (≈ 101 µM); in data set [4], 32 mg/L (≈ 101 µM); in [5] it was 32 mg/L (≈ 101 µM); in data set [6] it was 32 mg/L (≈ 101 µM); in data set [7], 32 mg/L (≈ 101 µM); in [8], 64 mg/L (≈ 203 µM). Also, the pKa (in general, the negative logarithm of the acid dissociation constant) in data set [12] amounted to 4.87.

As to `N#CCN(Cc1ccccc1F)c1ccccc1`, the minimal inhibitory concentration (MIC) is 128 mg/L (≈ 533 µM) in data set [1]; 128 mg/L (≈ 533 µM) in data set [9]; 128 mg/L (≈ 533 µM) in data set [2]; 512 mg/L (≈ 2130 µM) in data set [3]; 128 mg/L (≈ 533 µM) in [10]; 128 mg/L (≈ 533 µM) in [11]. In addition, the MIC in data set [13] came out at 128 mg/L (≈ 533 µM); in data set [4], 256 mg/L (≈ 1070 µM); in [5], 256 mg/L (≈ 1070 µM); in [6] it was 128 mg/L (≈ 533 µM); in data set [7], 128 mg/L (≈ 533 µM); in [8] it was 512 mg/L (≈ 2130 µM).

For the molecule `N#CCN(Cc1ccc(F)cc1)c1ccccc1`, the minimum inhibitory concentration (MIC) in data set [1] stood at 256 mg/L (≈ 1070 µM); in [9], 128 mg/L (≈ 533 µM); in data set [2], 256 mg/L (≈ 1070 µM); in data set [3] it was 128 mg/L (≈ 533 µM); in data set [10] it was 64 mg/L (≈ 266 µM); in data set [11], 128 mg/L (≈ 533 µM). The minimal inhibitory concentration (MIC) in data set [13] is 128 mg/L (≈ 533 µM); in [4], 512 mg/L (≈ 2130 µM); in [5], 128 mg/L (≈ 533 µM); in [6], 128 mg/L (≈ 533 µM); in [7] it was 128 mg/L (≈ 533 µM); in [8], 256 mg/L (≈ 1070 µM).

Turning to `CCCCCCN(CC#N)c1ccccc1`, the MIC came to 256 mg/L (≈ 1180 µM) in data set [1]; 256 mg/L (≈ 1180 µM) in data set [9]; 512 mg/L (≈ 2370 µM) in data set [2]; 512 mg/L (≈ 2370 µM) in data set [3]; 256 mg/L (≈ 1180 µM) in [10]; 128 mg/L (≈ 592 µM) in data set [11]. The minimal inhibitory concentration (MIC) in [13] is 256 mg/L (≈ 1180 µM); in data set [4], 256 mg/L (≈ 1180 µM); in [5] it was 256 mg/L (≈ 1180 µM); in data set [6] it was 128 mg/L (≈ 592 µM); in [7], 512 mg/L (≈ 2370 µM); in data set [8], 256 mg/L (≈ 1180 µM).

Regarding `CCCCCCCCCCN(CC#N)c1ccccc1`, the MIC came out at 128 mg/L (≈ 470 µM) in data set [1]; 256 mg/L (≈ 940 µM) in data set [9]; 256 mg/L (≈ 940 µM) in data set [2]; 512 mg/L (≈ 1880 µM) in [3]; 128 mg/L (≈ 470 µM) in data set [10]; 128 mg/L (≈ 470 µM) in [11]. Also, the MIC stood at 128 mg/L (≈ 470 µM) in data set [13]; 128 mg/L (≈ 470 µM) in data set [4]; 64 mg/L (≈ 235 µM) in data set [5]; 64 mg/L (≈ 235 µM) in [6]; 128 mg/L (≈ 470 µM) in data set [7]; 128 mg/L (≈ 470 µM) in data set [8].

Regarding `Cc1ccc(N(CC#N)Cc2ccc(Cl)cc2Cl)cc1`, the MIC in data set [1] stood at 128 mg/L (≈ 419 µM); in data set [9] it was 64 mg/L (≈ 210 µM); in [2], 256 mg/L (≈ 839 µM); in data set [3], 256 mg/L (≈ 839 µM); in data set [10] it was 64 mg/L (≈ 210 µM); in data set [11], 128 mg/L (≈ 419 µM). The minimal inhibitory concentration (MIC) in data set [13] turned out to be 512 mg/L (≈ 1680 µM); in [4] it was 512 mg/L (≈ 1680 µM); in data set [5], 512 mg/L (≈ 1680 µM); in [6], 256 mg/L (≈ 839 µM); in [7] it was 128 mg/L (≈ 419 µM); in [8], 512 mg/L (≈ 1680 µM).

`N#CCN(Cc1ccc(Cl)c(Cl)c1)c1ccccc1`: the minimum inhibitory concentration (MIC) was 256 mg/L (≈ 879 µM) in data set [1]; 256 mg/L (≈ 879 µM) in data set [9]; 256 mg/L (≈ 879 µM) in data set [2]; 128 mg/L (≈ 440 µM) in data set [3]; 64 mg/L (≈ 220 µM) in data set [10]; 256 mg/L (≈ 879 µM) in data set [11]. The minimal inhibitory concentration (MIC) came out at 128 mg/L (≈ 440 µM) in data set [13]; 256 mg/L (≈ 879 µM) in data set [4]; 128 mg/L (≈ 440 µM) in [5]; 256 mg/L (≈ 879 µM) in [6]; 256 mg/L (≈ 879 µM) in [7]; 256 mg/L (≈ 879 µM) in [8].

As for `N#CCN(Cc1ccc(F)cc1F)c1ccccc1`, the minimal inhibitory concentration (MIC) was 128 mg/L (≈ 496 µM) in [1]; 512 mg/L (≈ 1980 µM) in data set [9]; 128 mg/L (≈ 496 µM) in data set [2]; 256 mg/L (≈ 991 µM) in data set [3]; 128 mg/L (≈ 496 µM) in data set [10]; 256 mg/L (≈ 991 µM) in [11]. Further, the MIC in data set [13] stood at 256 mg/L (≈ 991 µM); in [4] it was 256 mg/L (≈ 991 µM); in data set [5], 256 mg/L (≈ 991 µM); in data set [6], 64 mg/L (≈ 248 µM); in data set [7], 256 mg/L (≈ 991 µM); in [8] it was 256 mg/L (≈ 991 µM).

On to `CCCCCCCCCCCCN(CC#N)c1ccccc1`, for which the MIC in data set [1] is 256 mg/L (≈ 852 µM); in [9], 256 mg/L (≈ 852 µM); in [2] it was 512 mg/L (≈ 1700 µM); in [3] it was 512 mg/L (≈ 1700 µM); in [10] it was 256 mg/L (≈ 852 µM); in data set [11], 128 mg/L (≈ 426 µM). In addition, the minimal inhibitory concentration (MIC) in [13] turned out to be 256 mg/L (≈ 852 µM); in data set [4], 128 mg/L (≈ 426 µM); in data set [5], 256 mg/L (≈ 852 µM); in [6], 256 mg/L (≈ 852 µM); in data set [7] it was 512 mg/L (≈ 1700 µM); in [8] it was 512 mg/L (≈ 1700 µM).

For the origin of these results see ChEMBL document CHEMBL3621169, “Synthesis of tetrazole compounds as a novel type of potential antimicrobial agents and their synergistic effects with clinical drugs and interactions with calf thymus DNA” (Medchemcomm, 2015).
